Our source for the Km values is ChEMBL document CHEMBL2074534, “In vitro P-glycoprotein affinity for atypical and conventional antipsychotics” (Life Sci, 2002).

In the data set the target is MDR1 (P-glycoprotein, ABCB1) (Homo sapiens, UniProt P08183). The data set can be described thus: TP_TRANSPORTER: ATP hydrolysis in membranes from MDR1-expressing insect cells. In kind it is functional, cell membranes, insect cell, Membrane.
MDR1 (P-glycoprotein, ABCB1), sequence (P08183 whole entry): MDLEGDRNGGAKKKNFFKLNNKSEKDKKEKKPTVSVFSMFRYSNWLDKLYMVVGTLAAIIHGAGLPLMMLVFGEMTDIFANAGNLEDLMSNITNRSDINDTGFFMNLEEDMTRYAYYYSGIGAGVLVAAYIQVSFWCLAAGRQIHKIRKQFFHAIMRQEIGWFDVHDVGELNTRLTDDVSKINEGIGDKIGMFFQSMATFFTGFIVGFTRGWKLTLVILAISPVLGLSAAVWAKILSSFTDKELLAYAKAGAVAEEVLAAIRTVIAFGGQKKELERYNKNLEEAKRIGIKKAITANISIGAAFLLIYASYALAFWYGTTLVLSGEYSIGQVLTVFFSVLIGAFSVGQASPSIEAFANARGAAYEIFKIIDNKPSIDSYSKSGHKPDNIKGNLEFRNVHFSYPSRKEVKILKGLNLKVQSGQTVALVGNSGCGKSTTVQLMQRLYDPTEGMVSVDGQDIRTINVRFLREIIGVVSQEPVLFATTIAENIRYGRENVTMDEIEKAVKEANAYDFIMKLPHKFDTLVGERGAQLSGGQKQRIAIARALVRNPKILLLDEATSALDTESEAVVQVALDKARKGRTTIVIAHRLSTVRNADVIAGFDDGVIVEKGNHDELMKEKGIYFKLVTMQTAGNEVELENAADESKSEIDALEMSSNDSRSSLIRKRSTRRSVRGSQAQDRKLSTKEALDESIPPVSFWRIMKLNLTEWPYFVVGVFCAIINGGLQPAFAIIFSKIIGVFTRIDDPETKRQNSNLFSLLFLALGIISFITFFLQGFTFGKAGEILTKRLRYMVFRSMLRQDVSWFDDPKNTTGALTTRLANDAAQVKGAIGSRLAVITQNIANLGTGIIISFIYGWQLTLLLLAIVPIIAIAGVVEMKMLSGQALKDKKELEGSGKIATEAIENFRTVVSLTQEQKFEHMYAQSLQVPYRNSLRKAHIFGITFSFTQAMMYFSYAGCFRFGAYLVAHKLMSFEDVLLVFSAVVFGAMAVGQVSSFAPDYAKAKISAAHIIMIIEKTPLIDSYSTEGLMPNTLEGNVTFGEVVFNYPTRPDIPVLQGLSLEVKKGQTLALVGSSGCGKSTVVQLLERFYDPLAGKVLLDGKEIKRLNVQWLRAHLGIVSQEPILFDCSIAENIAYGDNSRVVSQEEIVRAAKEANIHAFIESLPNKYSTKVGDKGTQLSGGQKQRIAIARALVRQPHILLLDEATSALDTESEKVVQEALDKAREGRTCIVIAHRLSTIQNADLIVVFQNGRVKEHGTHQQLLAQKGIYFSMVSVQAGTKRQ
Regarding `CN(C)CCCN1c2ccccc2Sc2ccc(Cl)cc21` [CHLORPROMAZINE], the Km came out at 27.4 µM.

Consider `O=C(CCCN1CCC(O)(c2ccc(Cl)cc2)CC1)c1ccc(F)cc1` [HALOPERIDOL], for which the Km was found to be 33 µM. With `Cc1cc2c(s1)Nc1ccccc1N=C2N1CCN(C)CC1` [OLANZAPINE] the figure was 8.3 µM.
